Our source for the IC50 and Ki values is ChEMBL document CHEMBL1909046, “DrugMatrix in vitro pharmacology data”.

The nature of experiment [1]: DRUGMATRIX: Sodium/nucleoside co-transporter radioligand binding (ligand: nitrobenzylthioinosine). It counts as cell membranes, Cavia porcellus, Dunkin-Hartley, Cerebral cortex, Membrane. The following applies: Not Active = under 50% inhibition at 10 µM.
Experiment [2] concerns the target T1, Alpha-1D adrenergic receptor (Homo sapiens, UniProt P25100). Further: in other assays of this panel Not Active means under 50% inhibition at 10 µM.
T1 sequence (P25100 whole entry): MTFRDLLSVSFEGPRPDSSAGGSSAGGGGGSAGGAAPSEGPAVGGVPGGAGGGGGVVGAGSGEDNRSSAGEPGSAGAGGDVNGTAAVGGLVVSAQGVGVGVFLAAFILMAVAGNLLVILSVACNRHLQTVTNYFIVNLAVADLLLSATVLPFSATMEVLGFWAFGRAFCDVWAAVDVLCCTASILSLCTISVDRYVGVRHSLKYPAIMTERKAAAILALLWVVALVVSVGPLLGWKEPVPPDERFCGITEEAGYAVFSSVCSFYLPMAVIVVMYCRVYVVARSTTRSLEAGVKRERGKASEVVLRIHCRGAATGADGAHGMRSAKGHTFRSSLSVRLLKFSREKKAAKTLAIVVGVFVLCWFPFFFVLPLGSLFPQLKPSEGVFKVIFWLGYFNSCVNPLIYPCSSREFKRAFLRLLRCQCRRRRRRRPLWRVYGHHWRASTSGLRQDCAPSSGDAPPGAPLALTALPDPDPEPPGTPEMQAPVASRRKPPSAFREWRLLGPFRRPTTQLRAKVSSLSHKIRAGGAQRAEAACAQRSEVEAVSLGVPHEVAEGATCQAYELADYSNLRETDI
It counts as cell membranes, HEK293, Membrane.

Experiment [3] is described as follows: DRUGMATRIX: Atrial Natriuretic Factor (ANF) radioligand binding (ligand: [125I] ANF (rat)). It is filed as cell membranes, Cavia porcellus, Dunkin-Hartley, Adrenal gland, Membrane. The following applies: Not Active = under 50% inhibition at 10 µM.
Experiment [4] can be described thus: DRUGMATRIX: Calcium Channel Type L, Benzothiazepine radioligand binding (ligand: [3H] Diltiazem). It counts as cell membranes, Rattus norvegicus, Wistar, Brain, Membrane. The following applies: Not Active = under 50% inhibition at 10 µM.
In experiment [5] the target is 5-hydroxytryptamine receptor 2B (Homo sapiens, UniProt P41595). It counts as cell membranes, CHO-K1, Membrane. Further: in other assays of this panel Not Active means under 50% inhibition at 10 µM.
5-hydroxytryptamine receptor 2B, sequence (P41595 whole entry): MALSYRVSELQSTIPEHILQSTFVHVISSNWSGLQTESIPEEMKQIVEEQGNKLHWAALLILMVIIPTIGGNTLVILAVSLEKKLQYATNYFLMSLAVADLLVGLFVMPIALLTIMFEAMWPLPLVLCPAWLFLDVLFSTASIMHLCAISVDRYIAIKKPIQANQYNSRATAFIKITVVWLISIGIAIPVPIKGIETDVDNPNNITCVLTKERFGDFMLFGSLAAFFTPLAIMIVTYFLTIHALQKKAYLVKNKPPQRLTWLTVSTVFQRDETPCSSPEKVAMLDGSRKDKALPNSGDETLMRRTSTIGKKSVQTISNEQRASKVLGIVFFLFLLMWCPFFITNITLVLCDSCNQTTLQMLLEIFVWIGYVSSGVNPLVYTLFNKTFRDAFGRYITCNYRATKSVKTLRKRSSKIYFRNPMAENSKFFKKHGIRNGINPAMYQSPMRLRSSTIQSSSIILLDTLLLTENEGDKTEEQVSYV
The target of experiment [6] is Melanocortin receptor 4 (Homo sapiens, UniProt P32245). It counts as cell membranes, HEK293, Membrane. The following applies: hek293. Further: in other assays of this panel Not Active means under 50% inhibition at 10 µM.
Melanocortin receptor 4, sequence (P32245 whole entry): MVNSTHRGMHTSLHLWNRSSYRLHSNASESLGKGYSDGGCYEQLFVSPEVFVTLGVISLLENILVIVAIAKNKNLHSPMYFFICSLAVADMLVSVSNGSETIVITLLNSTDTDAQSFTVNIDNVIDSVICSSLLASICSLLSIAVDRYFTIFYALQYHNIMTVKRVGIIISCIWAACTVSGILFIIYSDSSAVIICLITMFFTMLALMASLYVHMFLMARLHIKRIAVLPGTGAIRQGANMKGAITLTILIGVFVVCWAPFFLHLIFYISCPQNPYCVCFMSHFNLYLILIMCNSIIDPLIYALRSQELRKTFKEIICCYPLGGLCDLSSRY
For experiment [7], the target named is Mitogen-activated protein kinase 3 (Homo sapiens, UniProt P27361). As to the kind of experiment: DRUGMATRIX: Protein Serine/Threonine Kinase, ERK1 enzyme inhibition (substrate: Myelin Basic Protein). The arrangement: species or system Escherichia coli. The following applies: Not Active = under 50% inhibition at 10 µM.
Mitogen-activated protein kinase 3, sequence (P27361 whole entry): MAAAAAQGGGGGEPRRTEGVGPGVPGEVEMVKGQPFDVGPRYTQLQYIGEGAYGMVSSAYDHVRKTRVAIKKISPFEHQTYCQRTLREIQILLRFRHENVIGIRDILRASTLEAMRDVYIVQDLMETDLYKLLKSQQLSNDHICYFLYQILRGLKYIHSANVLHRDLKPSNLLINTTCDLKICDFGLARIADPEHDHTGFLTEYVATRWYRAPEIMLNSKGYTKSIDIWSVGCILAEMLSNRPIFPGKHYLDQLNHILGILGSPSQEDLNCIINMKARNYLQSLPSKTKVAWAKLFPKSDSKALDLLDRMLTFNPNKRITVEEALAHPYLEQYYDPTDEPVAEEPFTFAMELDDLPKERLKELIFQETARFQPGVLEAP

Usually IC50 stands for the concentration that gives 50% inhibition. The Ki is the dissociation constant of the complex between target and ligand, obtained from inhibition or displacement. With `CCC1(c2ccc(N)cc2)CCC(=O)NC1=O` (configuration not stated) [AMINOGLUTETHIMIDE], the concentration for half-maximal inhibition (IC50) result in experiment [1], in experiment [2] (hek293), in experiment [3], in experiment [4], in experiment [5] (cho-k1) and in experiment [6] was “Not Active” each time. Further, the IC50 result in experiment [7] is “Not Active”. Also, the Ki result in experiment [1], in experiment [3] and in experiment [4] was “Not Active” in each case.
Take `CNCCCN1c2ccccc2CCc2ccccc21` [DESIPRAMINE]: the IC50 entry in experiment [1], in experiment [2] (hek293), in experiment [3], in experiment [4], in experiment [5] (cho-k1) and in experiment [6] was “Not Active” each time. Further, in experiment [7], the 50% inhibitory concentration (IC50) result is on record as “Not Active”. Further, the Ki entry in experiment [1], in experiment [3] and in experiment [4] was “Not Active” throughout.
With `Cc1ccccc1N1C(=O)c2cc(S(N)(=O)=O)c(Cl)cc2NC1C` (configuration not stated) [METOLAZONE], the IC50 result in experiment [1], in experiment [2] (hek293), in experiment [3], in experiment [4], in experiment [5] (cho-k1) and in experiment [6] was “Not Active” throughout. Further, the half-maximal inhibitory concentration (IC50) entry in experiment [7] is “Not Active”. Further, the Ki result in experiment [1], in experiment [3] and in experiment [4] was “Not Active” each time.
For the compound `C1CCC(C(CC2CCCCN2)C2CCCCC2)CC1` (configuration not stated) [PERHEXILINE], the IC50 entry is “Not Active” in experiment [1]; “Not Active” in experiment [2] (hek293); “Not Active” in experiment [3]; 1060 nM in experiment [4] (read-out: IC50); “Not Active” in experiment [5] (cho-k1); “Not Active” in experiment [6]. Further, the IC50 entry in experiment [7] was “Not Active”. For the same compound, the Ki entry was “Not Active” in experiment [1], “Not Active” in experiment [3] and 939 nM in experiment [4] (read-out: Ki).
Turning to `N=C(N)NCCN1CCCCCCC1` [GUANETHIDINE], the IC50 result in experiment [1], in experiment [2] (hek293), in experiment [3], in experiment [4], in experiment [5] (cho-k1) and in experiment [6] was “Not Active” throughout. In experiment [7], the IC50 entry is listed as “Not Active”. Moreover, the Ki result in experiment [1], in experiment [3] and in experiment [4] was “Not Active” each time.
As for `CC(C)CN(C[C@@H](O)[C@H](Cc1ccccc1)NC(=O)O[C@H]1CCOC1)S(=O)(=O)c1ccc(N)cc1`, the IC50 entry in experiment [1], in experiment [2] (hek293), in experiment [3], in experiment [4], in experiment [5] (cho-k1) and in experiment [6] was “Not Active” in each case. Moreover, in experiment [7], the IC50 result is on record as “Not Active”. The Ki entry in experiment [1], in experiment [3] and in experiment [4] was “Not Active” in each case.
As to `O=c1[nH]c(=O)n([C@H]2C[C@H](O)[C@@H](CO)O2)cc1I` [IDOXURIDINE], the IC50 entry in experiment [1], in experiment [2] (hek293), in experiment [3], in experiment [4], in experiment [5] (cho-k1) and in experiment [6] was “Not Active” throughout. The 50% inhibitory concentration (IC50) entry in experiment [7] is recorded as “Not Active”. Besides, the Ki result in experiment [1], in experiment [3] and in experiment [4] was “Not Active” in each case.
As for `C[C@H](CCC(=O)O)[C@H]1CC[C@H]2[C@@H]3[C@H](O)C[C@@H]4C[C@H](O)CC[C@]4(C)[C@H]3C[C@H](O)[C@]12C` [CHOLIC ACID], the half-maximal inhibitory concentration (IC50) result in experiment [1], in experiment [2] (hek293), in experiment [3], in experiment [4], in experiment [5] (cho-k1) and in experiment [6] was “Not Active” in each case. The IC50 result in experiment [7] is given as “Not Active”. In addition, the inhibition constant (Ki) result in experiment [1], in experiment [3] and in experiment [4] was “Not Active” throughout.
For `O=C(CCCN1CC=C(n2c(=O)[nH]c3ccccc32)CC1)c1ccc(F)cc1` [DROPERIDOL], the IC50 result was “Not Active” in experiment [1]; 83 nM in experiment [2] (read-out: IC50); “Not Active” in experiment [3]; “Not Active” in experiment [4]; 1340 nM in experiment [5] (read-out: IC50); “Not Active” in experiment [6]. Besides, the IC50 result in experiment [7] is listed as “Not Active”. In addition, the Ki entry is “Not Active” in experiment [1]; 41 nM in experiment [2] (read-out: Ki); “Not Active” in experiment [3]; “Not Active” in experiment [4]; 854 nM in experiment [5] (read-out: Ki).
Regarding `CC(=O)O[C@@]12CO[C@@H]1C[C@H](O)[C@@]1(C)C(=O)[C@H](O)C3=C(C)[C@@H](OC(=O)[C@H](O)[C@@H](NC(=O)OC(C)(C)C)c4ccccc4)C[C@@](O)([C@@H](OC(=O)c4ccccc4)[C@H]21)C3(C)C.O.O.O` [DOCETAXEL], the half-maximal inhibitory concentration (IC50) entry in experiment [1], in experiment [2] (hek293), in experiment [3], in experiment [4], in experiment [5] (cho-k1) and in experiment [6] was “Not Active” throughout. Also, in experiment [7], the IC50 result is “Not Active”. Also, the inhibition constant Ki result in experiment [1], in experiment [3] and in experiment [4] was “Not Active” throughout.
As for `C[C@H]1c2cccc(O)c2C(=O)C2=C(O)[C@]3(O)C(=O)C(C(N)=O)=C(O)[C@@H](N(C)C)[C@@H]3[C@@H](O)[C@@H]21.O` [DOXYCYCLINE], the IC50 result in experiment [1], in experiment [2] (hek293), in experiment [3], in experiment [4], in experiment [5] (cho-k1) and in experiment [6] was “Not Active” throughout. Besides, in experiment [7], the IC50 result is given as “Not Active”. Besides, the inhibition constant (Ki) entry in experiment [1], in experiment [3] and in experiment [4] was “Not Active” each time.
For the compound CADMIUM ACETATE, the IC50 result in experiment [1], in experiment [2] (hek293), in experiment [3], in experiment [4], in experiment [5] (cho-k1) and in experiment [6] was “Not Active” throughout. In addition, the 50% inhibitory concentration (IC50) entry in experiment [7] is “Not Active”. For the same compound, the inhibition constant Ki entry in experiment [1], in experiment [2] (hek293), in experiment [3], in experiment [4], in experiment [5] (cho-k1) and in experiment [6] was “Not Active” throughout. For the same compound, the Ki entry in experiment [7] is on record as “Not Active”.
With `CC(C)[C@@]1(NC(=O)[C@@H]2C[C@@H]3c4cccc5[nH]cc(c45)C[C@H]3N(C)C2)O[C@@]2(O)[C@@H]3CCCN3C(=O)[C@H](Cc3ccccc3)N2C1=O.CS(=O)(=O)O` [DIHYDROERGOCRISTINE MESYLATE], the IC50 result in experiment [1] is “Not Active”; in experiment [2] (read-out: IC50), 7.37 nM; in experiment [3] it was “Not Active”; in experiment [4], “Not Active”; in experiment [5] (read-out: IC50), 6.6 nM; in experiment [6], “Not Active”. For the same compound, the IC50 result in experiment [7] is “Not Active”. Also, the Ki result in experiment [1] was “Not Active”; in experiment [2] (read-out: Ki), 3.62 nM; in experiment [3], “Not Active”; in experiment [4], “Not Active”; in experiment [5] (read-out: Ki) it was 4.2 nM.
Turning to LIPOPOLYSACCHARIDE E. COLI O55:B5, the IC50 entry in experiment [1], in experiment [2] (hek293), in experiment [3], in experiment [4], in experiment [5] (cho-k1) and in experiment [6] was “Not Active” in each case. Further, the concentration for half-maximal inhibition (IC50) result in experiment [7] is recorded as “Not Active”. Moreover, the Ki entry in experiment [1], in experiment [2] (hek293), in experiment [3], in experiment [4], in experiment [5] (cho-k1) and in experiment [6] was “Not Active” in each case. The inhibition constant Ki result in experiment [7] was “Not Active”.
